Source: patent US20240239790A1, “7-Morpholino-1,6-Naphthyridin-5-yl Derivatives and Pharmaceutical Compositions Thereof Useful as DNA-PK Inhibitor” (adMare Therapeutics Society, priority 2021, published 2024)

What was measured:
[1] = Microsomal Stability Assay, mouse liver microsomes; format: in vitro ADME; settings: for microsomal CLint at 0.1 uM: male, CD-1, pH 7.4, mouse liver microsomes 0.1 mg/mL, 0.1 uM compound; for Microsomal Stability Mouse % rem. 60 min: mouse liver microsomes
Procedure: (§1) Samples were then mixed and centrifuged. Supernatants were used for HPLC-MS/MS analysis. […] Peak areas corresponding to the test compound were recorded.

[2] = Microsomal Stability Assay, human liver microsomes; format: in vitro ADME; settings: for microsomal CLint at 0.1 uM: both sexes, pH 7.4, human liver microsomes 0.1 mg/mL, 0.1 uM compound; for Microsomal Stability Human % rem. 60 min: human liver microsomes
Procedure: as §1

[3] = biological target: T1, DNA-PK phosphorylation at Serine 2056 (Homo sapiens, UniProt P78527); assay: Cellular Assay for Inhibition of DNA-PK Phosphorylation at Serine 2056 in FaDu cells (sandwich ELISA, neocarzinostatin); format: cell-based; settings: pSer2056 DNA-PK, neocarzinostatin 1 μg/mL, Table 1
T1 construct: FaDu cells were purchased from ATCC; host or cells: FaDu
Procedure, shortened: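 pSer2056 and total DNA-PK were measured by sandwich ELISA in BCA-normalised FaDu lysates. Cells had 1 h compound exposure (0.3% DMSO), then 2 h with 1 μg/mL final neocarzinostatin. IC50 was fitted (variable slope) to % inhibition scaled against NCS-stimulated and DMSO-only controls.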

In the case of `CN1CCN(C(=O)COc2cnc(N[C@H]3CC[C@@H](Oc4nc(N5CCOCC5)cc5ncccc45)CC3)nc2)CC1` [Compound 62, 1-(4-Methylpiperazin-1-yl)-2-((2-(((1s,4s)-4-((7-morpholino-1,6-naphthyridin-5-yl)oxy)cyclohexyl)amino)pyrimidin-5-yl)oxy)ethan-1-one], the microsomal CLint at 0.1 uM [1] is reported as under 116 µL/min/mg, the “Microsomal Stability Mouse % rem. 60 min” value [1] is reported as “F (% remaining = 25-50%)” and the microsomal CLint at 0.1 uM [2] is reported as under 116 µL/min/mg. For the same molecule, the “Microsomal Stability Human % rem. 60 min” value [2] was “G (% remaining = 50-75%)” and the IC50 [3] was under 100 nM.
With `O=C(COc1cnc(N[C@H]2CC[C@@H](Oc3nc(N4CCOCC4)cc4ncccc34)CC2)nc1)N1CCNCC1` [Compound 63, 2-((2-(((1s,4s)-4-((7-Morpholino-1,6-naphthyridin-5-yl)oxy)cyclohexyl)amino)pyrimidin-5-yl)oxy)-1-(piperazin-1-yl)ethan-1-one] the microsomal CLint at 0.1 uM [1] was over 116 µL/min/mg, the “Microsomal Stability Mouse % rem. 60 min” value [1] was “F (% remaining = 25-50%)” and the microsomal CLint at 0.1 uM [2] was under 116 µL/min/mg. For the same molecule, the “Microsomal Stability Human % rem. 60 min” value [2] was “H (% remaining = 75-100%)” and the IC50 [3] was under 100 nM.
For `CN(C)CCOc1cnc(N[C@H]2CC[C@@H](Oc3nc(N4CCOCC4)cc4ncccc34)CC2)nc1` [Compound 64, 5-(2-(Dimethylamino)ethoxy)-N-((1s,4s)-4-((7-morpholino-1,6-naphthyridin-5-yl)oxy)cyclohexyl)pyrimidin-2-amine], the microsomal CLint at 0.1 uM [1] was under 116 µL/min/mg, the “Microsomal Stability Mouse % rem. 60 min” value [1] was “G (% remaining = 50-75%)” and the microsomal CLint at 0.1 uM [2] was under 116 µL/min/mg. For the same molecule, the “Microsomal Stability Human % rem. 60 min” value [2] was “H (% remaining = 75-100%)” and the IC50 [3] was 100 to 1000 nM.
In the case of `NCCOc1cnc(N[C@H]2CC[C@@H](Oc3nc(N4CCOCC4)cc4ncccc34)CC2)nc1` [Compound 65, 5-(2-Aminoethoxy)-N-((1s,4s)-4-((7-morpholino-1,6-naphthyridin-5-yl)oxy)cyclohexyl)pyrimidin-2-amine], the microsomal CLint at 0.1 uM [1] is reported as under 116 µL/min/mg, the “Microsomal Stability Mouse % rem. 60 min” value [1] is reported as “G (% remaining = 50-75%)” and the microsomal CLint at 0.1 uM [2] is reported as over 116 µL/min/mg. For the same molecule, the “Microsomal Stability Human % rem. 60 min” value [2] was “G (% remaining = 50-75%)” and the IC50 [3] was under 100 nM.
In the case of `CC(=O)NCCOc1cnc(N[C@H]2CC[C@@H](Oc3nc(N4CCOCC4)cc4ncccc34)CC2)nc1` [Compound 66], the microsomal CLint at 0.1 uM [1] is reported as under 116 µL/min/mg, the “Microsomal Stability Mouse % rem. 60 min” value [1] is reported as “G (% remaining = 50-75%)” and the microsomal CLint at 0.1 uM [2] is reported as over 116 µL/min/mg. The “Microsomal Stability Human % rem. 60 min” value [2] was “F (% remaining = 25-50%)” and the IC50 [3] was under 100 nM.
With `c1cnc2cc(N3CCOCC3)nc(O[C@H]3CC[C@@H](Nc4ncc(OCCN5CCOCC5)cn4)CC3)c2c1` [Compound 68, N-((1s,4s)-4-((7-Morpholino-1,6-naphthyridin-5-yl)oxy)cyclohexyl)-5-(2-morpholinoethoxy)pyrimidin-2-amine] the microsomal CLint at 0.1 uM [1] was under 116 µL/min/mg, the “Microsomal Stability Mouse % rem. 60 min” value [1] was “F (% remaining = 25-50%)” and the IC50 [3] was 100 to 1000 nM.
For `CNC(=O)COc1cnc(N[C@H]2CC[C@@H](Oc3nc(N4CCOCC4)cc4ncccc34)CC2)nc1` [Compound 71, N-Methyl-2-((2-(((1s,4s)-4-((7-morpholino-1,6-naphthyridin-5-yl)oxy)cyclohexyl)amino)pyrimidin-5-yl)oxy)acetamide], the microsomal CLint at 0.1 uM [1] was under 116 µL/min/mg, the “Microsomal Stability Mouse % rem. 60 min” value [1] was “G (% remaining = 50-75%)” and the microsomal CLint at 0.1 uM [2] was under 116 µL/min/mg. The “Microsomal Stability Human % rem. 60 min” value [2] was “F (% remaining = 25-50%)” and the IC50 [3] was under 100 nM.
`O=c1[nH]c2cnc(N[C@H]3CC[C@@H](Oc4nc(N5CCOCC5)cc5ncccc45)CC3)nc2n1C1CCOCC1` [Compound 95, 2-(((1s,4s)-4-((7-Morpholino-1,6-naphthyridin-5-yl)oxy)cyclohexyl)amino)-9-(tetrahydro-2H-pyran-4-yl)-7,9-dihydro-8H-purin-8-one] gave an IC50 [3] of under 100 nM.
Work on `Cn1c(=O)n(C2CCOCC2)c2nc(N[C@H]3CC[C@@H](Oc4nc(N5CCOCC5)cc5ncccc45)CC3)ncc21` [Compound 96, 7-Methyl-2-(((1s,4s)-4-((7-morpholino-1,6-naphthyridin-5-yl)oxy)cyclohexyl)amino)-9-(tetrahydro-2H-pyran-4-yl)-7,9-dihydro-8H-purin-8-one] yielded an IC50 [3] of under 100 nM.
With `O=C(Cn1c(=O)n(C2CCOCC2)c2nc(N[C@H]3CC[C@@H](Oc4nc(N5CCOCC5)cc5ncccc45)CC3)ncc21)N1CCOCC1` [Compound 98, 2-(((1s,4s)-4-((7-Morpholino-1,6-naphthyridin-5-yl)oxy)cyclohexyl)amino)-7-(2-morpholino-2-oxoethyl)-9-(tetrahydro-2H-pyran-4-yl)-7,9-dihydro-8H-purin-8-one] the IC50 [3] was under 100 nM.
In the case of `O=C(Cn1c(=O)n(C2CCOCC2)c2nc(N[C@H]3CC[C@@H](Oc4nc(N5CCOCC5)cc5ncccc45)CC3)ncc21)N1CCC1` [Compound 99, 7-(2-(Azetidin-1-yl)-2-oxoethyl)-2-(((1s,4s)-4-((7-morpholino-1,6-naphthyridin-5-yl)oxy)cyclohexyl)amino)-9-(tetrahydro-2H-pyran-4-yl)-7,9-dihydro-8H-purin-8-one], the IC50 [3] is reported as under 100 nM.
In the case of `Cn1c(=O)[nH]c2cnc(N[C@H]3CC[C@@H](Oc4nc(N5CCOCC5)cc5ncccc45)CC3)nc21` [Compound 100, 9-Methyl-2-(((1s,4s)-4-((7-morpholino-1,6-naphthyridin-5-yl)oxy)cyclohexyl)amino)-7,9-dihydro-8H-purin-8-one], the IC50 [3] is reported as under 100 nM.
Molecule `Cn1c(=O)n(C)c2nc(N[C@H]3CC[C@@H](Oc4nc(N5CCOCC5)cc5ncccc45)CC3)ncc21` [Compound 101, 7,9-Dimethyl-2-(((1s,4s)-4-((7-morpholino-1,6-naphthyridin-5-yl)oxy)cyclohexyl)amino)-7,9-dihydro-8H-purin-8-one] has an IC50 [3] of under 100 nM.
Work on `CN(C)C(=O)Cn1c(=O)n(C)c2nc(N[C@H]3CC[C@@H](Oc4nc(N5CCOCC5)cc5ncccc45)CC3)ncc21` [Compound 102, N,N-Dimethyl-2-(9-methyl-2-(((1s,4s)-4-((7-morpholino-1,6-naphthyridin-5-yl)oxy)cyclohexyl)amino)-8-oxo-8,9-dihydro-7H-purin-7-yl)acetamide] yielded an IC50 [3] of under 100 nM.
For `CN(C)C(=O)COc1ccc(C(=O)N[C@H]2CC[C@@H](Oc3nc(N4CCOCC4)cc4ncccc34)CC2)cn1` [Compound 117, 6-(2-(dimethylamino)-2-oxoethoxy)-N-((1s,4s)-4-((7-morpholino-1,6-naphthyridin-5-yl)oxy)cyclohexyl)nicotinamide], the microsomal CLint at 0.1 uM [1] was under 116 µL/min/mg, the “Microsomal Stability Mouse % rem. 60 min” value [1] was “F (% remaining = 25-50%)” and the microsomal CLint at 0.1 uM [2] was over 116 µL/min/mg. The “Microsomal Stability Human % rem. 60 min” value [2] was “E (% remaining = 0-25%)” and the IC50 [3] was under 100 nM.
For `O=C(O)c1cnc2cc(N3CCOCC3)nc(O[C@H]3CC[C@@H](n4ccnc4)CC3)c2c1` [Compound 165, 5-(((1s,4s)-4-(1H-imidazol-1-yl)cyclohexyl)oxy)-7-morpholino-1,6-naphthyridine-3-carboxylic acid], the microsomal CLint at 0.1 uM [1] was under 116 µL/min/mg, the “Microsomal Stability Mouse % rem. 60 min” value [1] was “H (% remaining = 75-100%)” and the IC50 [3] was 10000 to 30000 nM.
For `O=C(NO)c1cnc2cc(N3CCOCC3)nc(O[C@H]3CC[C@@H](n4ccnc4)CC3)c2c1` [Compound 172, 5-(((1s,4s)-4-(1H-imidazol-1-yl)cyclohexyl)oxy)-N-hydroxy-7-morpholino-1,6-naphthyridine-3-carboxamide], the microsomal CLint at 0.1 uM [1] was under 116 µL/min/mg, the “Microsomal Stability Mouse % rem. 60 min” value [1] was “G (% remaining = 50-75%)” and the IC50 [3] was 1000 to 10000 nM.
For `CS(=O)(=O)NC(=O)c1cnc2cc(N3CCOCC3)nc(O[C@H]3CC[C@@H](n4ccnc4)CC3)c2c1` [Compound 175, 5-(((1s,4s)-4-(1H-imidazol-1-yl)cyclohexyl)oxy)-N-(methylsulfonyl)-7-morpholino-1,6-naphthyridine-3-carboxamide], the microsomal CLint at 0.1 uM [1] was under 116 µL/min/mg, the “Microsomal Stability Mouse % rem. 60 min” value [1] was “H (% remaining = 75-100%)” and the IC50 [3] was 10000 to 30000 nM.
With `O=S(=O)(CF)Nc1cnc2cc(N3CCOCC3)nc(O[C@H]3CC[C@@H](Nc4ncccn4)CC3)c2c1` [Compound 192, 1-fluoro-N-(7-morpholino-5-(((1s,4s)-4-(pyrimidin-2-ylamino)cyclohexyl)oxy)-1,6-naphthyridin-3-yl)methanesulfonamide] the IC50 [3] was 100 to 1000 nM.
`O=S(=O)(CC(F)F)Nc1cnc2cc(N3CCOCC3)nc(O[C@H]3CC[C@@H](Nc4ncccn4)CC3)c2c1` [Compound 193, 2,2-difluoro-N-(7-morpholino-5-(((1s,4s)-4-(pyrimidin-2-ylamino)cyclohexyl)oxy)-1,6-naphthyridin-3-yl)ethane-1-sulfonamide] showed an IC50 [3] of 100 to 1000 nM.
For `CS(=O)(=O)c1cnc2cc(N3CCOCC3)nc(O[C@H]3CC[C@@H](Nc4ncccn4)CC3)c2c1` [Compound 200b, N-((1s,4s)-4-((3-(methylsulfonyl)-7-morpholino-1,6-naphthyridin-5-yl)oxy)cyclohexyl)pyrimidin-2-amine], the IC50 [3] was 100 to 1000 nM.
Work on `CS(=O)(=O)c1cnc2cc(N3CCOCC3)nc(O[C@H]3CC[C@@H](Nc4ncc(OCC(=O)N5CCOCC5)cn4)CC3)c2c1` [Compound 204a, 2-((2-(((1s,4s)-4-((3-(methylsulfonyl)-7-morpholino-1,6-naphthyridin-5-yl)oxy)cyclohexyl)amino)pyrimidin-5-yl)oxy)-1-morpholinoethan-1-one] yielded an IC50 [3] of 100 to 1000 nM.
For `CS(=O)(=O)c1cnc2cc(N3CCOCC3)nc(O[C@H]3CC[C@@H](Nc4ncnc5ccoc45)CC3)c2c1` [Compound 204b, N-((1s,4s)-4-((3-(methylsulfonyl)-7-morpholino-1,6-naphthyridin-5-yl)oxy)cyclohexyl)furo[3,2-d]pyrimidin-4-amine], the IC50 [3] was under 100 nM.
With `CS(=O)(=O)c1cnc2cc(N3CCOCC3)nc(O[C@H]3CC[C@@H](NC(=O)c4ncco4)CC3)c2c1` [Compound 204c, N-((1s,4s)-4-((3-(methylsulfonyl)-7-morpholino-1,6-naphthyridin-5-yl)oxy)cyclohexyl)oxazole-2-carboxamide] the IC50 [3] was under 100 nM.
